Measured values: patent US7638482B2, “Protein kinase C zeta as a drug target for arthritis and other inflammatory diseases” (Wyeth, priority 2003, dated 2009)
Like-named read-outs stand apart in the source and are kept apart here. Where a SMILES comes first, the peptide text is derived from it. The star is where a group is joined. Myristoyl = CCCCCCCCCCCCCC(=O)*

What was measured:
[1] = test system: primary bovine chondrocytes; assay: Trypan blue staining of chondrocytes and lactate assays on culture media (cytotoxicity); format: cell-based
Method: Trypan blue staining of the chondrocytes and lactate assays on the culture media were performed to rule out cytotoxicity as a possible explanation for the results. […] In addition, control peptides were synthesized and tested in the same assay system to address the possibility that nonspecific effects may be causing the observed results.

[2] = test system: primary bovine chondrocytes; assay: Proteoglycan degradation in primary bovine chondrocyte pellet culture (release into media / retention in cell pellet, DMMB); format: cell-based
Method: Full-thickness bovine articular cartilage slices were dissected under aseptic conditions, rinsed four times in PBS, and subjected to pronase and collagenase digestion (1 mg/ml pronase (Calbiochem, San Diego, Calif.) for 30 minutes and 1 mg/ml Collagenase P (Roche Diagnostics Corporation, Indianapolis, Ind.) overnight at 37° C. in DME without serum) to isolate chondrocytes embedded in the cartilage extracellular matrix. The digest was filtered through a 70 micron Falcon™ cell strainer (BD Biosciences, San Jose, Calif.) and washed twice in DME containing 10% FBS. Typically 2-4×10^8 cells were obtained from a calf metacarpophalangeal joint surface. Cells were plated in monolayer in six-well plates at density of 2×10^6 cells/well. For pellet culture, cells were resuspended in growth media [HL-1 media (Cambrex Corporation, East Rutherford, N.J.), penicillin+streptomycin, glutamine, 50 μg/ml ascorbate, and 10% FBS] at 1×10^6 cells/ml, and 1 ml aliquots of cells were transferred to 15 ml sterile Falcon centrifuge tubes. The cells were centrifuged at 200×g for 5 min at 4° C. and the resulting cell pellets were cultured as described previously (Xu et al. (1996) Endocrinology 137:3557-65). Cell media were collected and stored for collagen and proteoglycan assays, and cells were refed with fresh media (3 ml/well, 1 ml/tube) every 3-4 days. Pellet cultures were maintained for 3 weeks, at which time the pellets were harvested and either digested with 0.5 ml of 300 μg/ml papain at 65° C. for 3-6 hrs for dimethylmethylene blue (DMMB) dye assays or prepared for histology.
Cells were incubated with the inhibitor for 3 hrs prior to the addition of either TNF or IL-1. […] SN50M, which served as a negative control, is the same peptide with amino acid changes to abolish NF-κB-blocking activity. SN50 and SN50M are available from, e.g., Biomol Research Laboratories, Inc. (Plymouth Meeting, Pa.).
To determine whether ζPKC inhibitors can inhibit TNF-mediated proteoglycan degradation, primary bovine chondrocytes were cultured with various concentrations of TNF for 5 days with or without (1) the myristoylated ζPKC peptide pseudosubstrate [herein termed “2089”; synthesized in-house; equivalent to SEQ ID NO:6; available from, e.g., BioSource International, Inc., USA (Camarillo, Calif.)], or (2) the small molecule inhibitor Ro-31-8220 (Sigma-RBI, Natick, Mass.). The inhibitors were added 3 hrs prior to addition of TNF.
To determine whether myristoylated ζPKC peptide pseudosubstrate 2089 can inhibit cytokine-mediated proteoglycan degradation in a dose-dependent manner, primary bovine chondrocytes were cultured with either 10 ng/ml TNF or 1 ng/ml IL-1 for 4 days after addition of various concentrations of 2089. […]

[3] = test system: NF-κB; assay: NF-κB luciferase reporter assay in immortalized human chondrocyte cell line C28/I2; format: cell-based; details: BIS 20 μM; TNFα 1 or 10 ng/ml; C28/I2 cells; inhibitor added 2 hrs before TNF; FIG. 8
Method: Activation of NF-κB was measured in an immortalized human chondrocyte cell line (C28/I2; see, e.g., Finger et al. (2003) Arthritis Rheum. 48:3395-403; Goldring (1994) J. Clin. Invest. 94:2307-16) into which a luciferase reporter gene under the control of an NF-κB response element was introduced. The cells were cultured in DMEM/Ham's F12 supplemented with 10% FBS; the cells were split into 96 wells (1×10^5 cells/well) and infected with adenovirus expressing NF-κB luciferase construct (100 MOI) 24 hrs prior to assay. The chondrocytes were incubated with inhibitors in serum-free media 2 hrs prior to the addition of TNF. […] BIS (20 μM), a pan-PKC inhibitor, was added to some cultures, and CC (8 μM), a competitive inhibitor of the phorbol ester binding site in some forms of PKC (but not the a typical PKCs, e.g., ζPKC), was added to other cultures.

[4] = target: T1, ζPKC (Homo sapiens, UniProt Q05513); details: literature (Toullec et al. 1991); cited from earlier work
T1 sequence (Q05513 1-592): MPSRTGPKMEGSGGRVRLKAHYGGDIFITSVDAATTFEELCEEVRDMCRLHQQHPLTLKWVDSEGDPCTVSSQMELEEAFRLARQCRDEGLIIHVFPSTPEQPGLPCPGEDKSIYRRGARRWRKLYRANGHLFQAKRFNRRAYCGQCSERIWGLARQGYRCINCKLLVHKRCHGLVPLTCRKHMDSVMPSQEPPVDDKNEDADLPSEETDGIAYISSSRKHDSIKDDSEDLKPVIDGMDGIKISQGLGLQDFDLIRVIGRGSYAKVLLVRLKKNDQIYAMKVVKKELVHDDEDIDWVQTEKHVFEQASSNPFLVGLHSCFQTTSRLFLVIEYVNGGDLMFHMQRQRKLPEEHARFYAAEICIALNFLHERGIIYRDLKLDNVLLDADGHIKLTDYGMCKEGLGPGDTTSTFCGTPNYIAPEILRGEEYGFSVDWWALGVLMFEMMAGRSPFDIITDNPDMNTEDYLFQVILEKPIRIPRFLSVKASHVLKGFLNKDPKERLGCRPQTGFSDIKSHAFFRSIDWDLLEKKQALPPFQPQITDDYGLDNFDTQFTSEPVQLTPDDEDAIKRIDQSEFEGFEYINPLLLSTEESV

Cn1cc(C2=C(c3cn(CCCSC(=N)N)c4ccccc34)C(=O)NC2=O)c2ccccc21 [Ro-31-8220]
cytotoxicity (trypan blue staining, lactate assays) ([1]; at the doses used in the proteoglycan degradation experiments): do not cause appreciable cytotoxicity
TNF-mediated proteoglycan degradation ([2]; 5 μM Ro-31-8220, 5 days, FIG. 3): relatively ineffective
TNF-mediated proteoglycan degradation ([2]; 10 μM Ro-31-8220, TNF 10 and 100 ng/ml, 5 days, FIG. 3): significantly inhibited
proteoglycan degradation in the absence of TNF ([2]; no TNF, 5 days, FIG. 3): inhibited proteoglycan degradation

bisindolylmaleimide
TNFα-mediated activation of NF-κB (relative luciferase activity) [3]: blocked
TNFα-mediated release of proteoglycan into the media ([2]; BIS at 20-40 μM, TNFα 100 ng/ml, FIG. 7): blocked
inhibition of PKC isoforms including ζPKC [4]: block the activity of all isoforms of PKC

CCCCCCCCCCCCCC(=O)N[C@@H](CO)C(=O)N[C@H](C(=O)N[C@@H](Cc1ccc(O)cc1)C(=O)N[C@@H](CCCNC(=N)N)C(=O)N[C@@H](CCCNC(=N)N)C(=O)NCC(=O)N[C@@H](C)C(=O)N[C@@H](CCCNC(=N)N)C(=O)N[C@@H](CCCNC(=N)N)C(=O)N[C@@H](Cc1c[nH]c2ccccc12)C(=O)N[C@@H](CCCNC(=N)N)C(=O)N[C@@H](CCCCN)C(=O)N[C@@H](CC(C)C)C(=O)O)[C@@H](C)CC [compound 2089] (Myristoyl-SIYRRGARRWRKL-OH)
cytotoxicity (trypan blue staining, lactate assays) [1]: do not cause appreciable cytotoxicity
